Results as given in patent publication US20230107642A1 (Erasca, Inc., priority 2020, published 2023).

molecular target: T1, K-Ras G12C (Homo sapiens, UniProt P01116, G12C); assay: CAF assay (% CAF; method in Example 7, not in this part); type: binding; details: 10 uM, 1 h; Table 3
T1 construct: This protein contained 188 amino acids in total, including an N-terminal 6-Histidine tag; made in house; host or cells: E. coli BL21

In order of falling “% CAF @ 10 uM, 1h” value:
1. C=CC(=O)N1CCN(c2nc(=O)n3c4c(c(-c5c(F)cc(F)cc5F)c(Cl)cc24)SC[C@@H]3CC2CCN(C)CC2)[C@@H](C)C1 [Example 92, (S)-7-((S)-4-acryloyl-2-methylpiperazin-1-yl)-9-chloro-3-((1-methylpiperidin-4-yl)methyl)-10-(2,4,6-trifluorophenyl)-2,3-dihydro-5H-[1,4]thiazino[2,3,4-ij]quinazolin-5-one]  96.7%
2. C=CC(=O)N1CCN(c2nc(=O)n3c4c(c(-c5ccc(F)cc5F)c(Cl)cc24)SC[C@H]3CCCN2C[C@@H]3C[C@H]2CO3)[C@@H](C)C1 [Example 97, (3R)-3-(3-((1S,4S)-2-oxa-5-azabicyclo[2.2.1]heptan-5-yl)propyl)-7-((S)-4-acryloyl-2-methylpiperazin-1-yl)-9-chloro-10-(2,4-difluorophenyl)-2,3-dihydro-5H-[1,4]thiazino[2,3,4-ij]quinazolin-5-one]  96.5%
3. C=CC(=O)N1C2CC(=O)CC1CN(c1nc(=O)n3c4c(c(-c5ccc(F)cc5F)c(C(F)(F)F)cc14)SCC3)C2 [Example 101, 7-(9-acryloyl-7-oxo-3,9-diazabicyclo[3.3.1]nonan-3-yl)-10-(2,4-difluorophenyl)-9-(trifluoromethyl)-2,3-dihydro-5H-[1,4]thiazino[2,3,4-ij]quinazolin-5-one]  96.5%
4. C=CC(=O)N1CCN(c2nc(=O)n3c4c(c(-c5ccc(F)cc5F)c(Cl)cc24)SCCC3)[C@@H](C)C1 [Example 102, 8-((S)-4-acryloyl-2-methylpiperazin-1-yl)-10-chloro-11-(2,4-difluorophenyl)-3,4-dihydro-2H,6H-[1,4]thiazepino[2,3,4-ij]quinazolin-6-one]  95.4%
5. C[C@H]1CN(C(=O)/C=C/C(F)(F)F)CCN1c1nc(=O)n2c3c(c(-c4ccc(F)c(Cl)c4)c(Cl)cc13)SCC2 [Example 93, (S,E)-9-chloro-10-(3-chloro-4-fluorophenyl)-7-(2-methyl-4-(4,4,4-trifluorobut-2-enoyl)piperazin-1-yl)-2,3-dihydro-5H-[1,4]thiazino[2,3,4-ij]quinazolin-5-one]  95%
6. C=CC(=O)N1CCN(c2nc(=O)n3c4c(c(-c5c(F)cc(F)cc5F)c(Cl)cc24)SC[C@H]3CC2CCN(C)CC2)[C@@H](C)C1 [Example 91, (R)-7-((S)-4-acryloyl-2-methylpiperazin-1-yl)-9-chloro-3-((1-methylpiperidin-4-yl)methyl)-10-(2,4,6-trifluorophenyl)-2,3-dihydro-5H-[1,4]thiazino[2,3,4-ij]quinazolin-5-one]  94.8%
7. C=CC(=O)N1CCN(c2nc(=O)n3c4c(c(-c5ccc(F)cc5F)c(Cl)cc24)SC[C@@H]3CCCN2C[C@@H]3C[C@H]2CO3)[C@@H](C)C1 [Example 94, (3S)-3-(3-((1S,4S)-2-oxa-5-azabicyclo[2.2.1]heptan-5-yl)propyl)-7-((S)-4-acryloyl-2-methylpiperazin-1-yl)-9-chloro-10-(2,4-difluorophenyl)-2,3-dihydro-5H-[1,4]thiazino[2,3,4-ij]quinazolin-5-one]  94.7%
8. C=CC(=O)N1CCN(c2nc(=O)n3c4c(c(-c5ccc(Cl)c(F)c5)c(Cl)cc24)SCC3)[C@@H](C)C1 [Example 89, (S)-7-(4-acryloyl-2-methylpiperazin-1-yl)-9-chloro-10-(4-chloro-3-fluorophenyl)-2,3-dihydro-5H-[1,4]thiazino[2,3,4-ij]quinazolin-5-one]  94.5%
9. C=CC(=O)N1CCN(c2nc(=O)n3c4c(c(-c5ccc(F)cc5F)c(Cl)cc24)SCC3)[C@@H](CC#N)C1 [Example 104, 2-((2S)-4-acryloyl-1-(9-chloro-10-(2,4-difluorophenyl)-5-oxo-2,3-dihydro-5H-[1,4]thiazino[2,3,4-ij]quinazolin-7-yl)piperazin-2-yl)acetonitrile]  94.4%
10. C=CC(=O)N1CCN(c2nc(=O)n3c4c(c(-c5ccc(F)cc5F)c(C(F)(F)F)cc24)SCC3)C2CS(=O)(=O)CC21 (centres unmarked) [Example 100, 7-(4-acryloyl-6,6-dioxidohexahydrothieno[3,4-b]pyrazin-1(2H)-yl)-10-(2,4-difluorophenyl)-9-(trifluoromethyl)-2,3-dihydro-5H-[1,4]thiazino[2,3,4-ij]quinazolin-5-one]  94%
11. C=CC(=O)N1CCN(c2nc(=O)n3c4c(c(-c5ccc(F)cc5F)c(OC)cc24)SCC3)[C@@H](C)C1 [Example 103, 7-((S)-4-acryloyl-2-methylpiperazin-1-yl)-10-(2,4-difluorophenyl)-9-methoxy-2,3-dihydro-5H-[1,4]thiazino[2,3,4-ij]quinazolin-5-one]  92.5%
12. C=CC(=O)N1CCN(c2nc(=O)n3c4c(c(-c5ccc(F)cc5F)c(Cl)cc24)SCC3)C[C@@H]1CC#N [Example 88, 2-((2S)-1-acryloyl-4-(9-chloro-10-(2,4-difluorophenyl)-5-oxo-2,3-dihydro-5H-[1,4]thiazino[2,3,4-ij]quinazolin-7-yl)piperazin-2-yl)acetonitrile]  90.2%
13. C=CC(=O)N1CCN(c2nc(=O)n3c4c(c(-c5ccc(F)cc5F)c(Cl)cc24)SC[C@H]3C)[C@@H](C)C1 [Example 99, (3R)-7-((S)-4-acryloyl-2-methylpiperazin-1-yl)-9-chloro-10-(2,4-difluorophenyl)-3-methyl-2H-[1,4]thiazino[2,3,4-ij]quinazolin-5(3H)-one]  87.2%
14. C=CC(=O)N1CCN(c2nc(=O)n3c4c(c(-c5ccc(F)c(Cl)c5)c(Cl)cc24)SCC3)[C@@H](C)C1 [Example 98, (S)-7-(4-acryloyl-2-methylpiperazin-1-yl)-9-chloro-10-(3-chloro-4-fluorophenyl)-2,3-dihydro-5H-[1,4]thiazino[2,3,4-ij]quinazolin-5-one]  86.4%
15. C=CC(=O)N1CCN(c2nc(=O)n3c4c(c(-c5cc(Cl)c(F)cc5F)c(Cl)cc24)SCC3)[C@@H](C)C1 [Example 82, 7-((S)-4-acryloyl-2-methylpiperazin-1-yl)-9-chloro-10-(5-chloro-2,4-difluorophenyl)-2,3-dihydro-5H-[1,4]thiazino[2,3,4-ij]quinazolin-5-one]  85.8%
16. C=CC(=O)N1CCN(c2nc(=O)n3c4c(c(-c5ccc(F)c(C#N)c5)c(Cl)cc24)SCC3)[C@@H](C)C1 [Example 83, (S)-5-(7-(4-acryloyl-2-methylpiperazin-1-yl)-9-chloro-5-oxo-2,3-dihydro-5H-[1,4]thiazino[2,3,4-ij]quinazolin-10-yl)-2-fluorobenzonitrile]  85.3%
17. C=CC(=O)N1CCN(c2nc(=O)n3c4c(c(-c5ccc(F)cc5F)c(Cl)cc24)SC[C@H]3CC2CCN(C)CC2)[C@@H](C)C1 [Example 87, (3R)-7-((S)-4-acryloyl-2-methylpiperazin-1-yl)-9-chloro-10-(2,4-difluorophenyl)-3-((1-methylpiperidin-4-yl)methyl)-2,3-dihydro-5H-[1,4]thiazino[2,3,4-ij]quinazolin-5-one]  82.4%
18. C=CC(=O)N1CCN(c2nc(=O)n3c4c(c(-c5cc(F)c(F)c(F)c5)c(Cl)cc24)SCC3)[C@@H](C)C1 [Example 90, (S)-7-(4-acryloyl-2-methylpiperazin-1-yl)-9-chloro-10-(3,4,5-trifluorophenyl)-2,3-dihydro-5H-[1,4]thiazino[2,3,4-ij]quinazolin-5-one]  78.8%
19. C=CC(=O)N1CCN(c2nc(=O)n3c4c(c(-c5cccc6cnccc56)c(Cl)cc24)SCC3)[C@@H](C)C1 [Example 86, 7-((S)-4-acryloyl-2-methylpiperazin-1-yl)-9-chloro-10-(isoquinolin-5-yl)-2,3-dihydro-5H-[1,4]thiazino[2,3,4-ij]quinazolin-5-one]  76.1%
20. C=CC(=O)N1C2CN(c3nc(=O)n4c5c(c(-c6ccc(F)cc6F)c(Cl)cc35)SCC4)CC1CN(S(C)(=O)=O)C2 [Example 95, 7-(9-acryloyl-7-(methylsulfonyl)-3,7,9-triazabicyclo[3.3.1]nonan-3-yl)-9-chloro-10-(2,4-difluorophenyl)-2,3-dihydro-5H-[1,4]thiazino[2,3,4-ij]quinazolin-5-one]  70.5%
21. C=CC(=O)N1CCN(c2nc(=O)n3c4c(c(-c5ccc(F)c(C(=O)NC)c5)c(Cl)cc24)SCC3)[C@@H](C)C1 [Example 85, (S)-5-(7-(4-acryloyl-2-methylpiperazin-1-yl)-9-chloro-5-oxo-2,3-dihydro-5H-[1,4]thiazino[2,3,4-ij]quinazolin-10-yl)-2-fluoro-N-methylbenzamide]  60.3%
22. C=CC(=O)N1CCN(c2nc(=O)n3c4c(c(-c5cccc6c5C(=O)NC6)c(Cl)cc24)SCC3)[C@@H](C)C1 [Example 96, 7-((S)-4-acryloyl-2-methylpiperazin-1-yl)-9-chloro-10-(3-oxoisoindolin-4-yl)-2,3-dihydro-5H-[1,4]thiazino[2,3,4-ij]quinazolin-5-one]  54%
23. C=CC(=O)N1CCN(c2nc(=O)n3c4c(c(-c5c(F)cc(Cl)cc5F)c(Cl)cc24)SCC3)[C@@H](C)C1 [Example 106, (S)-7-(4-acryloyl-2-methylpiperazin-1-yl)-9-chloro-10-(4-chloro-2,6-difluorophenyl)-2,3-dihydro-5H-[1,4]thiazino[2,3,4-ij]quinazolin-5-one]  45.2%
24. C=CC(=O)N1C2CN(c3nc(=O)n4c5c(c(-c6ccc(F)cc6F)c(Cl)cc35)SCC4)CC1CS(=O)(=O)C2 [Example 84, 7-(9-acryloyl-3,3-dioxido-3-thia-7,9-diazabicyclo[3.3.1]nonan-7-yl)-9-chloro-10-(2,4-difluorophenyl)-2,3-dihydro-5H-[1,4]thiazino[2,3,4-ij]quinazolin-5-one]  43.8%
25. C=CC(=O)N1CCN(c2nc(=O)n3c4c(c(-c5cccc6c5CC(=O)N6)c(Cl)cc24)SCC3)[C@@H](C)C1 [Example 105, 7-((S)-4-acryloyl-2-methylpiperazin-1-yl)-9-chloro-10-(2-oxoindolin-4-yl)-2,3-dihydro-5H-[1,4]thiazino[2,3,4-ij]quinazolin-5-one]  18.9%

same assay, conditions: 10 μM, 1 h; Table 4

In the case of `C=CC(=O)N1CCN(c2nc(=O)n3c4c(c(-c5ccc(F)cc5F)c(Cl)cc24)SC[C@H]3C)[C@@H](C)C1` [Example 99, (3R)-7-((S)-4-acryloyl-2-methylpiperazin-1-yl)-9-chloro-10-(2,4-difluorophenyl)-3-methyl-2H-[1,4]thiazino[2,3,4-ij]quinazolin-5(3H)-one], the “% CAF @ 10 μM, 1 h” value is reported as 87.2%.
